Measurements from article PMC11794677, “Self‐Assembly of a Conjugate of Lipoic Acid With a Collagen‐Stimulating Pentapeptide Showing Cytocompatibility and Wound Healing Properties, and Chemical and Photolytic Disassembly” (Journal of Peptide Science, 2025).

Legend:
[1] = Cryo-TEM of aggregation in solution; assay type: physicochemical; conditions: 3 wt% aqueous solution, above the CAC
Text: Cryo‐TEM was used to probe potential aggregation in solution above the CAC (3 wt% aqueous solution). […] The presence of such structures was also confirmed by SAXS and SANS data (Figure 3), which reveal form factor features that can be fitted using a core‐shell cylinder form factor, consistent with extended fibril structures. The cylinder radius is 25 Å, which is approximately equal to the estimated length of the molecule considering the lipid chain plus a pentapeptide in a β‐sheet conformation. […] For the SAXS data, it was necessary to include a contribution in the fits from unaggregated peptide, which gives rise to scattering at high q, described using a generalized Gaussian coil form factor (generalized refers to allowing the Flory exponent for the coil to vary from the value ν = 0.5 for an unperturbed coil). SANS data for 3 wt% solutions of lipoyl‐KTTKS in D2O can be fitted to a core‐shell cylinder form factor, consistent with SAXS, with fit parameters listed in Table S1. It was not necessary to allow for unaggregated monomer in fitting the SANS data, which may be because of the higher background and/or altered scattering contrast compared with SAXS. The cylinder radius and shell thickness obtained from the fits to the SANS data are in excellent agreement with the parameters obtained from the SAXS fit.
FIGURE 2 Cryo‐TEM image from a 3‐wt% aqueous solution of lipoyl‐KTTKS.

[2] = system: HDFa cells; experiment: Scratch assay of in vitro wound healing; assay type: cell-based, Human; conditions: 0.0062 wt% in DMEM without serum
Method: For the scratch assay, 5 × 10^4 cells into were seeded into 24‐well plates, and cells were allowed to reach confluence. After reaching 90% confluence, a scratch was made in the middle of the well using a 200‐μL pipette tip and cells were incubated at 37°C in an atmosphere 5% CO2. The media used was DMEM without serum for the controls or DMEM without serum + lipoyl‐KTTKS at different concentrations. Pictures were taken periodically using a standard inverted optical microscope with phase contrast filters to monitor cell migration and wound closure.
As a simple in vitro ‘wound healing’ model, scratch assays were performed by creating a scratch in a layer of cells. Images of the confluent cell layer are presented in SI Figure S5. The scratch assay is a simple and affordable procedure consisting of simulating the closure of a skin wound by scratching a monolayer of fibroblasts seeded at high confluence and monitoring how long it takes for the cells to migrate and recover the ‘wound’ [51, 52, 53]. As evident from the images in Figure S5, the recovery of cells incubated with 0.0062 wt% lipoyl‐KTTKS was enhanced, with complete closure of the scratch after 48 h.

[3] = CAC assay with fluorescent probe thioflavin T (ThT); assay type: physicochemical; conditions: ThT fluorescence peak intensity (λem = 448 nm) vs concentration
Method: Before considering biocompatibility and bioactivity of lipoyl‐KTTKS, we examined whether this lipopeptide has a critical aggregation concentration (CAC) above which it forms self‐assembled aggregate structures. Based on our previous work on KTTKS‐lipopeptides, β‐sheet formation of lipoyl‐KTTKS is likely to be favoured. Therefore a CAC assay using the fluorescent probe thioflavin T (ThT) which is sensitive to β‐sheet formation was performed. The ThT fluorescence peak intensity was monitored as a function of concentration, and the results are shown in Figure 1 and indicate a CAC value (0.5 ± 0.1) wt% from the intersection of the straight lines at low and high concentrations, or (0.67 ± 0.06) wt% as the midpoint of a fitted Boltzmann‐type sigmoidal function: I=A2+A1−A2/1+expc−c1/2/σ
FIGURE 1 CAC assay plotting fluorescence intensity of ThT (λ em = 448 nm) as a function of concentration. […] The black lines provide a linear intercept estimate of CAC.
Here, I is the fluorescence intensity (at λ em = 448 nm), A 1 and A 2 are constants, c is the lipopeptide concentration, c 1/2 is the mid‐point concentration, and σ is the width parameter.

[4] = Chemical reduction with TCEP, effect on self-assembled structures; assay type: physicochemical; conditions: 3 wt% with 2.6 wt% TCEP, SAXS and SANS; cryo-TEM 1 wt% + 0.37 wt% TCEP
Text: The ring‐opening of the lipoyl moiety can be achieved under reductive conditions. We examined the effect of chemical reduction on the self‐assembled structures of lipoyl‐KTTKS using TCEP [tris(2‐carboxyethyl)phosphine] as reductant. […] The SAXS data in Figure 3a show a considerable reduction in scattering intensity after addition of TCEP and the SANS profile in Figure 3b is barely above background after addition of TCEP. The SAXS data can be described using a form factor for monomer scattering with a power‐law intensity function at low q to account for a small fraction of irregular aggregates. The disruption of the fibrils upon TCEP addition was also confirmed by cryo‐TEM (images shown in Figure S1) because no aggregate structures were observed after addition of TCEP. Circular dichroism (CD) spectra shown in Figure 4 are characterized by a negative minimum in the CD spectrum at 196 nm along with the absence of defined features at higher wavelength, characteristic of a primarily disordered conformation. […] This is consistent with the observation that lipoyl‐KTTKS forms fibril‐like structures above a CAC detected by ThT binding to β‐sheet structure and as observed by cryo‐TEM, SAXS and SANS. […]

[5] = system: procollagen type I carboxy-terminal peptide (PIP); conditions: cited from earlier work
Text: Here, we investigate the structural properties, biocompatibility and collagen‐stimulating activity of a novel peptide amphiphile comprising a conjugate of lipoic acid to pentapeptide KTTKS, termed lipoyl‐KTTKS (Scheme 1). […] This can be contrasted with previous reported data f ...

Aggregate structure seen by cryo-TEM [1]: short curly fibrils | CAC (critical aggregation concentration) from intersection of straight lines ([3]; intersection of straight lines at low and high concentrations): 0.5 ± 0.1 wt% | CAC as midpoint of fitted Boltzmann-type sigmoidal function ([3]; midpoint c1/2 of sigmoidal fit): 0.67 ± 0.06 wt% | Effect of addition of TCEP on self-assembled structures [4]: disrupts the fibril structures
Substance: lipoyl‐KTTKS [peptide amphiphile comprising a conjugate of lipoic acid to pentapeptide KTTKS]
Time to first signs of recovery of the scratch [2]: 12 h | Time to complete closure of the scratch ([2]; control closed only after 72 h): 48 h | Increase in collagen synthesis compared with negative control ([5]; 0.038 wt% (0.5 mM) sample, enzyme immunoassay of PIP, single data point): 65% | Collagen synthesis relative to control and KTTKS [5]: superior to control and KTTKS itself
